Where two headings read alike, the source gives them in different places.
Columns and labels:
PgpGFP [1] = target: T1, PgpGFP (Homo sapiens, UniProt P08183); assay: Drug mediated microtubule depolymerization in PgpGFP transfected HeLa cells (anti-b-tubulin immunofluorescence); details: for effect of PgpGFP expression on sensitivity of cells to the drug: microtubule depolymerization, 30 min
Description: Cells were plated on 18 mm glass coverslips placed in 12-well dishes. […] For tubulin staining, cells were incubated for 30 minutes in the presence of indicated concentrations of vincristine (Calbiochem), colchicine (Calbiochem) or nocodazole (Sigma). Cells were then fixed, permeabilized, and labeled with 2 μg/ml Cy3-labeled anti-b-tubulin antibody, clone TUB 2.1 (Sigma).
We used a functional assay to quantify the effect of PgpGFP expression on the cytosolic activity of chemotherapeutics. Certain chemotherapeutics, such as colchicine, vincristine and nocodazole, depolymerize microtubules. The state of a cell's microtubules after being treated with these drugs is a measurement of the cellular concentration of the drug. Thus, we examined the microtubules using immunofluorescence against b-tubulin after drug treatment.

PgpCFP = PgpCFP (Homo sapiens, UniProt P08183); assay: Accumulation of AM ester dyes in PgpCFP transfected cells (fluorescence microscopy); details: dyes marked (CFP)
PgpCFP, sequence (P08183 whole entry): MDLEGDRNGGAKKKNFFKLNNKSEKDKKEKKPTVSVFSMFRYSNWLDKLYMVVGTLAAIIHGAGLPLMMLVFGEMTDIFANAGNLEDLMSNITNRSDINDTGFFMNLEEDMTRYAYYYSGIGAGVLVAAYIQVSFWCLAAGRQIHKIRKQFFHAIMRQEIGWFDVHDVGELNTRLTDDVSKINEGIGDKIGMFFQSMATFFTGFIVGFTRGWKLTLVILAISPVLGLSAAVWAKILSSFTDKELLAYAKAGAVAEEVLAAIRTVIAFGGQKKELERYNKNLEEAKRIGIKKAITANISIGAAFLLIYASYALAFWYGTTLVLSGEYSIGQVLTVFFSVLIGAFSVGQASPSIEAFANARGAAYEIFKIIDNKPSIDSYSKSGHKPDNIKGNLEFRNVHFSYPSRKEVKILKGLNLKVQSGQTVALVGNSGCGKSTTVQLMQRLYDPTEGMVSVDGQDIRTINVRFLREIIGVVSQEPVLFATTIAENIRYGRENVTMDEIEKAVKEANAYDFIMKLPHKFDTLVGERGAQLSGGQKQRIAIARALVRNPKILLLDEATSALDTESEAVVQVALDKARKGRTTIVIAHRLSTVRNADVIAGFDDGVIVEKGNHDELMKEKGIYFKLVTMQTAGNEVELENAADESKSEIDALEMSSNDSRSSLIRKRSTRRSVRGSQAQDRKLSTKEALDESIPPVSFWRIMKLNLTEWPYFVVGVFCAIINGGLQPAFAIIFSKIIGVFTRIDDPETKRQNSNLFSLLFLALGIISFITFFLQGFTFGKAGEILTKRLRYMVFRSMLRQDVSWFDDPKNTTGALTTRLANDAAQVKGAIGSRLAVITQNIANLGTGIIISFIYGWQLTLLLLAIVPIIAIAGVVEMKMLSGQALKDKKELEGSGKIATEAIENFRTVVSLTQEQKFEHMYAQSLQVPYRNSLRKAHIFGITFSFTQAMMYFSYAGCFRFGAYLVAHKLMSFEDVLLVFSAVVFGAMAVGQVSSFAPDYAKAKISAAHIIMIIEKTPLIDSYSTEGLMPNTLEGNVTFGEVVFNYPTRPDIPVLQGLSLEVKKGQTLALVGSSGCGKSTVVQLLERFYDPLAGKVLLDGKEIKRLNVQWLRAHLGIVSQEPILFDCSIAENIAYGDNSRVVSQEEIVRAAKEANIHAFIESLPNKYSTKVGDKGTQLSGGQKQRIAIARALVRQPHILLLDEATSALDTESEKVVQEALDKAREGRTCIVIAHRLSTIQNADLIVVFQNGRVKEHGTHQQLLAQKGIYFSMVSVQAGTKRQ

PgpGFP [2] = target: T1, PgpGFP
Description: (§1) HeLa cells (ATCC CCL-2) were cultured as per ATCC recommendations.
(§2) Epifluorescence microscopy was done on an inverted IX-70 microscope (Olympus America, Melville, N.Y.). […] Excitation was provided using a 150 Watt Xenon arc lamp (OptiQuip, Beaver Falls, Pa.). Excitation and emission filters were selected using filter wheels (Ludl Electronic Products, Hawthorne, N.Y.). All filters were from Chroma Technology (Brattleboro, Vt.).
(§3) Confocal microscopy was done on an upright Axiplan 2 microscope with a LSM 510 confocal attachment (Carl Zeiss, Thomwood, N.Y.). Excitation was provided an Argon/Krypton laser with lines at 488 nm and 568 nm and a Helium/Neon laser at 633 nm. The following laser lines and emission filters were used for confocal microscopy: GFP λex=488 nm, λem=500-530 nm, Texas Red, Cy3, TMRE: λex=568 nm, λem=580 nm LP, Fura Red, daunorubicin: λex=488 nm, λem=580 nm LP.
(§4) All fluorescent dyes were from Molecular Probes. Daunorubicin was from Calbiochem. Cells were incubated with the indicated drug or dye for the indicated amount of time in Opti-MEM without phenol red and with 10 mM Hepes (Life Technologies, Rockville, Md.) in a 5% CO2, 37° C. incubator prior to observation.

PgpGFP [3] = target: T1, PgpGFP; assay: Accumulation of fluorescent drugs and dyes in PgpGFP transfected HeLa cells (fluorescence microscopy); details: 30 min incubation, 1 μM daunorubicin (confocal), 200 nM Ho342 (epifluorescence)
Description: as §1, §2, §3, §4

T1 sequence (P08183 whole entry): as above

CC[C@]1(O)C[C@H]2CN(CCc3c([nH]c4ccccc34)[C@@](C(=O)OC)(c3cc4c(cc3OC)N(C=O)[C@H]3[C@@](O)(C(=O)OC)[C@H](OC(C)=O)[C@]5(CC)C=CCN6CC[C@]43[C@@H]65)C2)C1 [Vincristine, vincristine]
Fold resistance (high level PgpGFP expression, drug mediated microtubule depolymerization) (PgpGFP [1]): 25-125 fold

Calcein AM
Effects on fluorescence (effect of PgpCFP expression on accumulation of AM esters) (PgpCFP): >10 Fold

CC(=O)OCOC(=O)CN(CC(=O)OCOC(C)=O)c1ccc(C)cc1OCCOc1cc2cc(-c3ncc(C(=O)OCOC(C)=O)o3)oc2cc1N(CC(=O)OCOC(C)=O)CC(=O)OCOC(C)=O [FURA-2 AM]
Effects on fluorescence (effect of PgpGFP expression on accumulation of AM esters) (PgpGFP [2]): >10 Fold

COc1cc2c(c(OC)c1OC)-c1ccc(OC)c(=O)cc1[C@@H](NC(C)=O)CC2 [Colchicine, colchicine]
Fold resistance (high level PgpGFP expression, drug mediated microtubule depolymerization) (PgpGFP [1]; high level PgpGFP expression): 5-25 fold | effect of PgpGFP expression on sensitivity of cells to the drug (PgpGFP [1]): decreased the sensitivity

CC(=O)OCOC(=O)CN(CC(=O)OCOC(C)=O)c1ccc(C)cc1OCCOc1cc2cc(C=C3NC(=S)NC3=O)oc2cc1N(CC(=O)OCOC(C)=O)CC(=O)OCOC(C)=O [FURA Red AM]
Effects on fluorescence (effect of PgpGFP expression on accumulation of AM esters) (PgpGFP [2]): >10 Fold

COC(=O)Nc1nc2ccc(C(=O)c3cccs3)cc2[nH]1 [Nocodazole, nocodazole]
Fold resistance (high level PgpGFP expression, drug mediated microtubule depolymerization) (PgpGFP [1]; high level PgpGFP expression): None | effect of PgpGFP expression on sensitivity of cells to the drug (PgpGFP [1]): no effect

CCOc1ccc(-c2nc3ccc(-c4nc5ccc(N6CCN(C)CC6)cc5[nH]4)cc3[nH]2)cc1 [Ho342, Hoechst 33342]
fluorescence lower in PgpGFP expressing cell compared to Pgp negative cell (PgpGFP [3]): 3 fold

Reference: patent US20030049597A1, “Chimeric fluorescent enzymes and uses thereof” (priority 2001, published 2003)
